Test results as given in ChEMBL document CHEMBL4811278, “Discovery of novel modulators for the PPARα (peroxisome proliferator activated receptor α): Potential therapies for nonalcoholic fatty liver disease” (Bioorg Med Chem, 2021).
Active and inactive are the calls of the source. No cut-off for these calls is given here.

Tests used:
[1] = target: T1, Peroxisome proliferator-activated receptor gamma (Homo sapiens, UniProt P37231); experiment: Agonist activity at Gal4-fused human PPARgamma expressed in monkey CV1 cells assessed as receptor transactivation incubated for 45 hrs by luciferase reporter gene assay; assay type: cell-based, CV-1
T1 sequence (P37231 whole entry): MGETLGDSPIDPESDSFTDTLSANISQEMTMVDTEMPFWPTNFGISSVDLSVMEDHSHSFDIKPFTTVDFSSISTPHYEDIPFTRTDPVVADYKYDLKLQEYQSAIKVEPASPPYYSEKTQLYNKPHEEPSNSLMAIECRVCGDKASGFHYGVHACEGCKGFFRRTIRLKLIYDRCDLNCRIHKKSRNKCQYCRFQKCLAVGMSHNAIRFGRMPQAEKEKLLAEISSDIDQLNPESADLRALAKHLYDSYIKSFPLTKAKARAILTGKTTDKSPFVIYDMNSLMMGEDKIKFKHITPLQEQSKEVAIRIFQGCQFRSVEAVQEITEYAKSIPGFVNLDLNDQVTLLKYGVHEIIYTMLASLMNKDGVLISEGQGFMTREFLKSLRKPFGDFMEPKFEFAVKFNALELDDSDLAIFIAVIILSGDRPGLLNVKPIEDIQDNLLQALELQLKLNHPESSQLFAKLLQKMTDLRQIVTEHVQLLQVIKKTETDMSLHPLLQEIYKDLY

Mus musculus [2] = experiment: Hypolipidemic activity in high fat diet-induced nonalcoholic steatohepatitis C57BL/6J mouse model assessed as reduction in plasma triglyceride level at 3 mg/kg, po administered via gavage and measured after 24 hrs; assay type: functional
Mus musculus [3] = experiment: Hypolipidemic activity in high fat diet-induced nonalcoholic steatohepatitis C57BL/6J mouse model assessed as reduction in lipid accumulation in liver at 3 mg/kg, po administered once daily for 1 week by Oil Red O staining based assay; assay type: functional, organism-based; conditions: time 1.0 weeks
[4] = target: T2, Peroxisome proliferator-activated receptor alpha (Mus musculus) (UniProt P23204); experiment: In vivo agonist activity at PPARalpha in high fat diet-induced nonalcoholic steatohepatitis C57BL/6J mouse model assessed as increase in LPL mRNA expression in liver administered at 3 mg/kg, po and measured after 24 hrs by quantitative real time PCR analysis; assay type: functional, organism-based
T2 sequence (whole entry): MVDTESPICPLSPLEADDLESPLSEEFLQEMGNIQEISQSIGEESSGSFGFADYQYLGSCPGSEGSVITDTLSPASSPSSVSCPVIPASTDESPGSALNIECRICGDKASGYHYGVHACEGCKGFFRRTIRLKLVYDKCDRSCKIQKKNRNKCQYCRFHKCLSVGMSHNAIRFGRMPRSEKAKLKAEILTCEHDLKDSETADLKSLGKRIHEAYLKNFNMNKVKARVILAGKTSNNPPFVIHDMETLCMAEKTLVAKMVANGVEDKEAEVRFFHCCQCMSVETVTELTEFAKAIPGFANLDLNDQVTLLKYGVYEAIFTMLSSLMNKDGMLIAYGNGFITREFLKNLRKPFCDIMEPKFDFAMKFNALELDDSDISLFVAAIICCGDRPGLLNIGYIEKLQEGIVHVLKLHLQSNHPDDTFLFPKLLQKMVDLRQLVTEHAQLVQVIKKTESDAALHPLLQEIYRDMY

[5] = target: T2, Peroxisome proliferator-activated receptor alpha (Mus musculus); experiment: In vivo agonist activity at PPARalpha in high fat diet-induced nonalcoholic steatohepatitis C57BL/6J mouse model assessed as transrepression of ApoC3 mRNA expression in liver administered at 3 mg/kg, po administered once daily for 7 days by quantitative real time PCR analysis; assay type: functional, organism-based; conditions: time 7.0 day
[6] = target: T2, Peroxisome proliferator-activated receptor alpha (Mus musculus); experiment: In vivo agonist activity at PPARalpha in high fat diet-induced nonalcoholic steatohepatitis C57BL/6J mouse model assessed as increase in ACOX1 mRNA expression in liver administered at 3 mg/kg, po administered once daily for 7 days by quantitative real time PCR analysis; assay type: functional, organism-based; conditions: time 7.0 day
Mus musculus [7] = experiment: Hypolipidemic activity in wild type high fat diet-induced nonalcoholic steatohepatitis C57BL/6J mouse model assessed as reduction in plasma triglyceride levels at 3 mg/kg, po measured after 72 hrs; assay type: functional, organism-based
Mus musculus [8] = experiment: Hypolipidemic activity in high fat diet-induced nonalcoholic steatohepatitis C57BL/6J mouse model assessed as reduction in hepatocellular vacuolation at 3 mg/kg, po administered once daily for 1 week by Oil Red O staining based assay; assay type: functional, organism-based; conditions: time 1.0 weeks
Mus musculus [9] = experiment: Upregulation of PPARalpha expression in liver of high fat diet-induced nonalcoholic steatohepatitis C57BL/6J mouse model at 3 mg/kg, po and measured after 24 hrs by quantitative real time PCR analysis; assay type: functional, organism-based

- EC50 [1]: > 10 µM
- Activity [4]: Active
- Activity [5]: Active
- Activity [6]: Active
Structure (SMILES): COc1ccc(Cn2c(CCCc3ccc(OC(C)(C)C(=O)O)cc3)nn(Cc3ccc(C)cc3)c2=O)cc1
- inhibition in vivo at 3 mg/kg (Mus musculus [2]): ≥ 50%
- Activity (Mus musculus [3]): Active
- Activity (Mus musculus [7]): Active
- Activity (Mus musculus [8]): Active
- Activity (Mus musculus [9]): Active
